Assay results published in ChEMBL document CHEMBL1148188, “Cytotoxic and antimalarial alkaloids from the bulbs of Crinum amabile” (J Nat Prod, 1993).
In brackets after ≈: the same amount, converted by molar mass.

Experiments:
Plasmodium falciparum [1] = experiment: Antimalarial activity after 24 hrs against Plasmodium falciparum D6 infected type A+ human erythrocytes by [3H]hypoxanthine uptake; type: functional; conditions: D6, read-out: ED50
Plasmodium falciparum [2] = experiment: Antimalarial activity after 24 hrs against Plasmodium falciparum W2 infected in type A+ human erythrocytes by [3H]hypoxanthine uptake; type: functional; conditions: W2, read-out: ED50
[3] = Cytotoxicity against human BCA1 cells after 3 days by sulforhodamine B assay; type: functional; conditions: BCA1, 72 h, read-out: ED50 (the source's name)
HT-1080 = experiment: Cytotoxicity against human HT1080 cells after 3 days by sulforhodamine B assay; type: functional; conditions: HT-1080, 72 h, read-out: ED50 (the source's name)
[4] = Cytotoxicity against human LUC1 cells after 3 days by sulforhodamine B assay; type: functional; conditions: LUC1, 72 h, read-out: ED50 (the source's name)
SK-MEL-2 = experiment: Cytotoxicity against human SK-MEL-2 cells after 3 days by sulforhodamine B assay; type: functional; conditions: SK-MEL-2, 72 h, read-out: ED50 (the source's name)
[5] = Cytotoxicity against human Col1 cells after 3 days by sulforhodamine B assay; type: functional; conditions: Col1, 72 h, read-out: ED50 (the source's name)
KB = experiment: Cytotoxicity against human KB cells after 3 days by sulforhodamine B assay; type: functional; conditions: 72 h, read-out: ED50 (the source's name)
[6] = Cytotoxicity against human KBV1 cells after 3 days by sulforhodamine B assay; type: functional; conditions: KB-V1, 72 h, read-out: ED50 (the source's name)
P388 = experiment: Cytotoxicity against mouse P388 cells after 3 days by sulforhodamine B assay; type: functional; conditions: P388, 72 h, read-out: ED50 (the source's name)
A-431 = experiment: Cytotoxicity against human A431 cells after 3 days by sulforhodamine B assay; type: functional; conditions: A-431, 72 h, read-out: ED50 (the source's name)
LNCaP = experiment: Cytotoxicity against human LNCAP cells after 3 days by sulforhodamine B assay; type: functional; conditions: 72 h, read-out: ED50 (the source's name)
ZR-75-1 = experiment: Cytotoxicity against human ZR-75-1 cells after 3 days by sulforhodamine B assay; type: functional; conditions: ZR-75-1, 72 h, read-out: ED50 (the source's name)
[7] = Cytotoxicity against human U373 cells after 3 days by sulforhodamine B assay; type: functional, U-373MG ATCC; conditions: U373 MG, 72 h, read-out: ED50 (the source's name)
[8] = Selectivity index, ratio of ED50 for human KB cells to ED50 for Plasmodium falciparum D6; type: toxicity, cell-based; conditions: read-out: Ratio ED50
[9] = Selectivity index, ratio of ED50 for human KB cells to ED50 for Plasmodium falciparum W2; type: toxicity, cell-based; conditions: read-out: Ratio ED50

| Structure (SMILES) | EC50 (Plasmodium falciparum [1]) [µg/mL] | EC50 (Plasmodium falciparum [2]) [µg/mL] | EC50 [3] [µg/mL] | EC50 (HT-1080) [µg/mL] | EC50 [4] [µg/mL] | EC50 (SK-MEL-2) [µg/mL] | EC50 [5] [µg/mL] | EC50 (KB) [µg/mL] | EC50 [6] [µg/mL] | EC50 (P388) [µg/mL] | EC50 (A-431) [µg/mL] | EC50 (LNCaP) [µg/mL] | EC50 (ZR-75-1) [µg/mL] | EC50 [7] [µg/mL] | selectivity ratio [8] | selectivity ratio [9] |
| --- | --- | --- | --- | --- | --- | --- | --- | --- | --- | --- | --- | --- | --- | --- | --- | --- |
| CCN(CC)CCCC(C)Nc1ccnc2cc(Cl)ccc12 (stereo not drawn) [CHLOROQUINE] | 0.0013 (≈ 0.00406 µM) | 0.0112 (≈ 0.035 µM) |  |  |  |  |  |  |  |  |  |  |  |  |  |  |
| O[C@@H]1CC[C@H]2N3CC[C@@]2(c2cc4c(cc2C3)OCO4)[C@@H]1O |  |  | > 20 | > 20 | > 20 | > 20 | > 20 | > 20 | > 20 | > 5 | > 20 | > 20 | > 20 | > 20 |  |  |
| OC(c1cc(C(F)(F)F)nc2c(C(F)(F)F)cccc12)C1CCCCN1 (stereo not drawn) [MEFLOQUINE] | 0.0073 (≈ 0.0193 µM) | 0.0016 (≈ 0.00423 µM) |  |  |  |  |  |  |  |  |  |  |  |  | 480 | 2190 |
| CO[C@@H]1C[C@H]2N3CC[C@@]2(c2cc4c(cc2C3)OCO4)[C@H]2O[C@@H]12 | 0.14 (≈ 0.465 µM) | 0.18 (≈ 0.597 µM) | 2.8 (≈ 9.29 µM) | 1.2 (≈ 3.98 µM) | 3.7 (≈ 12.3 µM) | 3.2 (≈ 10.6 µM) | 2.4 (≈ 7.96 µM) | 0.6 (≈ 1.99 µM) | > 20 | 0.6 (≈ 1.99 µM) | 4.9 (≈ 16.3 µM) | 1.7 (≈ 5.64 µM) | 1.8 (≈ 5.97 µM) | 0.6 (≈ 1.99 µM) | 4 | 3 |
| C=C[C@H]1CN2CC[C@H]1C[C@H]2[C@H](O)c1ccnc2ccc(OC)cc12 [QUININE] | 0.0094 (≈ 0.029 µM) | 0.0245 (≈ 0.0755 µM) |  |  |  |  |  |  |  |  |  |  |  |  | > 2130 | > 820 |
| O[C@H]1[C@H]2c3cc4c(cc3CN3CCC(=C[C@@H]1O)[C@H]23)OCO4 [LYCORINE] | 0.32 (≈ 1.11 µM) | 0.3 (≈ 1.04 µM) | 1.6 (≈ 5.57 µM) | 0.5 (≈ 1.74 µM) | 0.9 (≈ 3.13 µM) | 1.6 (≈ 5.57 µM) | 0.8 (≈ 2.78 µM) | 0.3 (≈ 1.04 µM) | 0.4 (≈ 1.39 µM) | 0.9 (≈ 3.13 µM) | 1.3 (≈ 4.52 µM) | 0.5 (≈ 1.74 µM) | 0.9 (≈ 3.13 µM) | 0.3 (≈ 1.04 µM) | 1 | 1 |
| CO[C@H]1C=C[C@@]23c4cc5c(cc4CN(C[C@@H]2O)[C@H]3C1)OCO5 |  |  | 1.4 (≈ 4.65 µM) | 1.3 (≈ 4.31 µM) | 1.4 (≈ 4.65 µM) | 5 (≈ 16.6 µM) | 1 (≈ 3.32 µM) | 1 (≈ 3.32 µM) | 0.6 (≈ 1.99 µM) | 0.7 (≈ 2.32 µM) | 6.9 (≈ 22.9 µM) | 1.5 (≈ 4.98 µM) | 0.8 (≈ 2.65 µM) | 0.9 (≈ 2.99 µM) | 0.4 | 0.4 |
| COC1C=C[C@@]23CCN(Cc4cc5c(cc42)OCO5)[C@@H]3C1 (stereo partly drawn) |  |  | > 20 | > 20 | > 20 | > 20 | > 20 | > 20 | 19.8 (≈ 69.4 µM) | > 5 | > 20 | > 20 | > 20 | > 20 |  |  |
| C[C@@H]1CC[C@H]2[C@@H](C)C(=O)O[C@@H]3O[C@@]4(C)CC[C@@H]1[C@]32OO4 [ARTEMISININ] | 0.0006 (≈ 0.00213 µM) |  |  |  |  |  |  |  |  |  |  |  |  |  | > 33300 | > 40000 |
